Values of other authors, collected in patent publication US20090048261A1, “Pharmaceutical Composition for Treatment of Ocular Hypertension” (priority 2007, published 2009).
“And” between values parts separate entries of the source, which are not always exact repeats. Equal values may be shown once. Read-outs that look alike come from different tables or passages of the source.

Assays:
[1] = system: primary open-angle glaucoma patients; conditions: 30 patients
[2] = system: patients with glaucoma or ocular hypertension; conditions: for difference in effectiveness of brimonidine and dorzolamide: jointly used with topical beta-blockers, Cantor
[3] = system: carbonic anhydrase isoenzyme; conditions: after 4 weeks of bilateral treatment
[4] = system: alpha-2-andrenergic receptors; conditions: compared with clonidine
[5] = topical

In the case of `CC(C)OC(=O)CCC/C=C\C[C@@H]1[C@@H](CC[C@@H](O)CCc2ccccc2)[C@H](O)C[C@@H]1O` [latanoprost], the increase in pulsating ocular blood flow [1] is given as 2.15 µL/s and the “reduction of intraocular pressure” value [1] is given as 3.75 mmHg.
For `CCN[C@H]1C[C@H](C)S(=O)(=O)c2sc(S(N)(=O)=O)cc21` [dorzolamide], the “additional reduction of intraocular pressure when added to topical brimonidine” value ([2]; dorzolamide at 2%, patients with intraocular pressure of at least 22 mm Hg, 30 days, Ermis) is given as “up to 29%”, the “reduction of intraocular pressure when added to timolol” value ([2]; human, in vivo) is given as 20% and the “difference in effectiveness of brimonidine and dorzolamide” value [2] is given as “no statistically significant differences”. For the same compound, the “binding to plasma proteins” value (plasma proteins) was about 33% and the “decrease of carbonic anhydrase isoenzyme's activity, of its basic activity” value [3] was 21%.
For Brimonidine tartrate, the “time of peak ocular antihypertensive effects” value (topical administration of ophthalmic solution) is given as 2 to 3 h.
In the case of `Brc1c(NC2=NCCN2)ccc2nccnc12` [brimonidine], the “effectiveness in reducing ocular hypertension, brimonidine at 0.2% versus dorzolamide at 2%” value ([2]; joint therapy with topical beta-blockers, adults with ocular hypertension, Simmons) is given as “more effective”, the “additive effect of intraocular pressure reduction” value ([2]; joint treatment to topical beta-blocker therapy) is given as 5 mmhg and 3.7 mmhg and the “difference in effectiveness of brimonidine and dorzolamide” value [2] is given as “no statistically significant differences”. The “selectivity to alpha-2 adrenergic receptors” value [4] was “higher selectivity”.
For `CC(C)(C)NC[C@H](O)COc1nsnc1N1CCOCC1` [timolol], the “time over which ocular antihypertensive effect is maintained” value (chronic use) is given as “up to three years”, the duration of effect (one drop of timolol at 0.5%) is given as “over 24 hours” and the “start of the drug's action” value (one drop of timolol at 0.5%) is given as “after an hour”. For the same compound, the “time of peak effect” value (one drop of timolol at 0.5%) was 2 h, the “start of the drug's action” value (one drop, topical ocular instillation) was “within a single hour” and the “duration of significant reduction of intraocular pressure” value (single dose) was “up to 24 hours”. For the same compound, the “effect over pupil size or accommodation” value [5] was “little or no effect” and the “systemic effects after absorption” value [5] was “decrease in heart rate, cardiac arrhythmia and bronchial spasm”.
